The conditions of data set [1]: cited from earlier work; for clearance: in adults.
Data set [2] in a line: human pharmacokinetics after oral dosing (literature). It is filed as in vivo, humans. The settings on record: for Z, target local free (unbound) concentration = peak plasma free drug concentration: peak plasma concentration*(100-PBF)/100. An excerpt: Z is expressed in units of ng/ml and is the target local free ( i.e. unbound) concentration that is expected to have a therapeutic effect against the skin condition. In the case of PPAR gamma agonists, Z should correspond to the peak plasma free drug concentration generated by dosing these drugs orally to treat effectively Type II diabetes mellitus. The appropriate value of Z may be determined experimentally in vivo by conventional known means using standard protocols.
C is expressed in units of ml/hr and is the rate of clearance of the drug substance. Clearance may be determined experimentally in vivo by conventional known means using standard tests. For example it can be determined from the plasma concentration in response to a defined input of drug using the equation given below: Clearance (ml/hr)=Input rate (ng/hr)/Total plasma concentration (ng/ml)

For data set [3] the following is noted: cited from earlier work; for Plasma protein binding: Product Information; for plasma bound fraction: value used in the flux equations.
The test system of a further data set is fasting plasma glucose. To be noted: type II diabetes patients, cited from earlier work.

Here are results for three compounds from patent US20060159648A1, “Novel therapeutic method and compositions for topical administration” (priority 2003, published 2006).

The structures appear in SMILES notation. Where two headings read alike, the source gives them in different places.

For the compound `Cc1c(C)c2c(c(C)c1O)CCC(C)(COc1ccc(CC3SC(=O)NC3=O)cc1)O2` (stereo not drawn) [troglitazone, 5-[[4-[(3,4-dihydro-6-hydroxy-2,5,7,8-tetramethyl-2H-1-benzopyran-2-yl)methoxy]phenyl]methyl]-2,4-thiazolidinedione], the Peak plasma concentration entry in data set [1] (400 mg dose) is on record as “about 1500 ng/ml”. For the same compound, in data set [1] (with a meal), the Bioavailability is about 85% and the Clearance/Bioavailability is 500 mL/min. The clearance in data set [2] (human, plasma, oral, in adults, from Clearance/Bioavailability and bioavailability with a meal) is 425 mL/min. The “Z, target local free (unbound) concentration = peak plasma free drug concentration” value in data set [2] stood at 7.5 ng/mL. In data set [3], the Plasma protein binding is 99% and the plasma bound fraction was 99.5%.
With `CN(CCOc1ccc(CC2SC(=O)NC2=O)cc1)c1ccccn1` (stereo not drawn) [rosiglitazone, 5-[4-[2-(N-methyl-N-(2-pyridyl)amino)ethoxy]benzyl]thiazolidine-2,4-dione], in data set [1] (8 mg dose), the Peak plasma concentration result is “about 600 ng/ml”. Further, the clearance in data set [1] is 2780 mL/h. Moreover, the “Z, target local free (unbound) concentration = peak plasma free drug concentration” value in data set [2] is 1.7 ng/mL. The plasma bound fraction in data set [3] is given as 99.72%. Besides, the “time to achieve a reduction of fasting plasma glucose by 2 mmol 1” value in the data set with fasting plasma glucose (2 mg b.i.d. dosage regimen) is “about 8 weeks”; in the data set with fasting plasma glucose (4 mg b.i.d. dosage regimen) it was “about 4 weeks”.
For the compound `CCc1ccc(CCOc2ccc(CC3SC(=O)NC3=O)cc2)nc1` (stereo not drawn) [pioglitazone, 5-[4-[2-(5-ethyl-2-pyridyl)ethoxy]benzyl]thiazolidine-2,4-dione], in data set [1] (30 mg dose), the Peak plasma concentration result is recorded as “about 700 ng/ml”. The clearance in data set [1] was 2400 mL/h. In addition, the “Z, target local free (unbound) concentration = peak plasma free drug concentration” value in data set [2] stood at 3.5 ng/mL. Besides, in data set [3], the Plasma protein binding was over 99% and the plasma bound fraction is given as 99.5%.
